Assays:
yeast expressing ExoS = assay: yeast growth recovery of yeast expressing ExoS; settings: CUP1 promoter; library screened at 50 µM
ExoS ADPRT activity = ExoS ADPRT activity (Pseudomonas aeruginosa, UniProt G3XDA1); assay: biochemical
ADPRT activity of ExoA = ADPRT activity of ExoA (Pseudomonas aeruginosa, UniProt P11439); assay: biochemical
Sequence of ADPRT activity of ExoA (P11439 26-638 limits assumed): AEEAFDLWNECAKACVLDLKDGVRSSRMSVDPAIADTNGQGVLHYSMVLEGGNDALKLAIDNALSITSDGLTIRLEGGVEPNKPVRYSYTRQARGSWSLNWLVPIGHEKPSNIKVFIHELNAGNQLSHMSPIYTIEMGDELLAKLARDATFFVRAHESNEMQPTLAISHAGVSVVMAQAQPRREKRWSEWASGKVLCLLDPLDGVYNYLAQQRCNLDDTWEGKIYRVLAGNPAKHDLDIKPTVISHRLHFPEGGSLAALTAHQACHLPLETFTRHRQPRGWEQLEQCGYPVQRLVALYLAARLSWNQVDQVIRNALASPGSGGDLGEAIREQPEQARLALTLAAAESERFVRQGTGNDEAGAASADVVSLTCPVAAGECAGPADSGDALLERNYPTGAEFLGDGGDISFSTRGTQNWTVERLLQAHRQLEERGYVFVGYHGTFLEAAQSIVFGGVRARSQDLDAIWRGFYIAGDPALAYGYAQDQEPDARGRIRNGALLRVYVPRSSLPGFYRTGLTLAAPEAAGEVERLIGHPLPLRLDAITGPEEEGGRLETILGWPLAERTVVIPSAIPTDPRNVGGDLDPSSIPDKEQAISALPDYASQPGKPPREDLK

Sequence of ExoS ADPRT activity (G3XDA1 whole entry, looked up): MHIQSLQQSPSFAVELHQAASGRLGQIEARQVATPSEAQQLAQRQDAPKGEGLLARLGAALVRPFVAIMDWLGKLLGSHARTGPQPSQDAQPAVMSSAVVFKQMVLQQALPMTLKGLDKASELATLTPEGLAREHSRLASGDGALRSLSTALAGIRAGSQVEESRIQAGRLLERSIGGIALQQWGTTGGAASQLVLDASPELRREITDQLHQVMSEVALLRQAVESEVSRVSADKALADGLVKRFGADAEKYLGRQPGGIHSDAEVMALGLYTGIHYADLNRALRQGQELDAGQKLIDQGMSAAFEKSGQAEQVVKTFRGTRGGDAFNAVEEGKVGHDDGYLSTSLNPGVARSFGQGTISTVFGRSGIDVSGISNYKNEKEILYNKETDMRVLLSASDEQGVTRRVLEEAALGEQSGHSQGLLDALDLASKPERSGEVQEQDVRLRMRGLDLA

Row | SMILES | restoration of growth of yeast expressing ExoS (in words) (yeast expressing ExoS) | IC50 (ExoS ADPRT activity) [µM] | Ki (ExoS ADPRT activity) [µM] | mode of inhibition of ExoS ADPRT (ExoS ADPRT activity) | IC50 (ADPRT activity of ExoA) [µM]
1 | CCOC(=O)n1c(=O)oc2cc([N+](=O)[O-])ccc21 [0469-0796] | restore yeast growth | – | – | – | –
2 | COc1cc(O)c(C(=O)/C=C/c2ccccc2)c(OC)c1 [Flavokawain B] | restore yeast growth | – | – | – | –
3 | C=CCOC(=O)C1=C(C)NC(SCC(=O)Nc2nccs2)=C(C#N)C1c1cccs1 (stereo not shown) [4296-1011] | restore yeast growth | 6 | – | – | –
4 | COc1ccc(-c2cc(=O)c3c(O)cc(O[C@@H]4O[C@H](CO[C@@H]5O[C@@H](C)[C@H](O)[C@@H](O)[C@H]5O)[C@@H](O)[C@H](O)[C@H]4O)cc3o2)cc1O [Diosmin, reference compound] | restore yeast growth | 3 | – | – | –
5 | CCC1CN(C(=O)Nc2ccc(C)cc2)c2cc(Cl)ccc2O1 (stereo not shown) [exosin-5138] | – | 12 | – | – | –
6 | CCc1ccc(NC(=O)N2CC(CC)Oc3ccccc32)cc1 (stereo not shown) [exosin] | restore yeast growth | – | 33 ± 3 | competitive inhibitor | 17
7 | COc1cc(C)c(C(=O)O)c(O)c1 [Everninic acid] | restore yeast growth | 21 | – | – | –
8 | CCC1CN(C(=O)Nc2cccc3c2CCCC3)c2ccccc2O1 (stereo not shown) [exosin-5340] | no protective effect | 129 | – | – | –
9 | CCC1CN(C(=O)Nc2ccc(C)cc2)c2ccccc2O1 (stereo not shown) [exosin-5316] | – | 63 | – | – | –

From PMC2265467 (PLoS Genetics, 2008)
